Assay results taken from ChEMBL document CHEMBL6115000, “Discovery of a first-in-class PROTAC degrader of histone lysine demethylase KDM4” (Eur J Med Chem, 2025).
Calls of active or inactive are those of the source. The rule behind the calls is not given here.

Experiments:
[1] = Induction of cell cycle arrest in human KYSE-150 cells assessed as accumulation of cells at S pahse at 333.3 nM incubated for 24 hrs by flow cytometry (reference value: 13.15 %); type: functional
[2] = biological target: von Hippel-Lindau disease tumor suppressor/Lysine-specific demethylase 4D (Homo sapiens, UniProt Q6B0I6+P40337); test: PROTAC activity at VHL/KDM4D in human KYSE-150 cells assessed as induction of KDM4D degradation measured after 24 hrs by Western blot analysis; type: cell-based; conditions: kyse-150 cell line
Chain of von Hippel-Lindau disease tumor suppressor/Lysine-specific demethylase 4D (Q6B0I6 whole entry): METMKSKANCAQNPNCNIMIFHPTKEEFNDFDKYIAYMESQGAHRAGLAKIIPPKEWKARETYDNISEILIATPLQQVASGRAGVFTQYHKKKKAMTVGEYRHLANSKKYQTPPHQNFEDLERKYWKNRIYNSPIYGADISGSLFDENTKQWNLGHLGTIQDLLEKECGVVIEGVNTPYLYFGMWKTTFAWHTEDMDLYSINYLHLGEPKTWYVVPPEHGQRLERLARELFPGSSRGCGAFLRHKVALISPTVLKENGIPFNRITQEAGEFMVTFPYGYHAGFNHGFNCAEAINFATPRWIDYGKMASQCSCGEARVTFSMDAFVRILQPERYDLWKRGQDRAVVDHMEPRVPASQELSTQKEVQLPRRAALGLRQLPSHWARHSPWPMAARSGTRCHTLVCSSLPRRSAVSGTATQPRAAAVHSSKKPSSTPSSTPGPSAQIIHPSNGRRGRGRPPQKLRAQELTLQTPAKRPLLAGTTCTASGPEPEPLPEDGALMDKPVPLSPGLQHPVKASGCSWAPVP
Chain of von Hippel-Lindau disease tumor suppressor/Lysine-specific demethylase 4D (P40337 whole entry): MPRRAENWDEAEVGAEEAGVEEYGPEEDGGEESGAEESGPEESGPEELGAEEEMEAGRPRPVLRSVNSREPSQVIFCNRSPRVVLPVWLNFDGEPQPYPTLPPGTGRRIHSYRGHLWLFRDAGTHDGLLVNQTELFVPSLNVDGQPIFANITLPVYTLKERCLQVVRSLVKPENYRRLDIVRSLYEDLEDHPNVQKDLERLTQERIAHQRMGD

[3] = Induction of apoptosis in human KYSE-150 cells assessed as late apoptotic cells at 111.1 nM incubated for 72 hrs by Annexin V-PE/7-AAD staining based flow cytometry (reference value: 5.98 %); type: functional
[4] = Induction of apoptosis in human KYSE-150 cells assessed as necrotic cells at 37 nM incubated for 72 hrs by Annexin V-PE/7-AAD staining based flow cytometry (reference value: 4.28 %); type: functional
[5] = Induction of cell cycle arrest in human KYSE-150 cells assessed as accumulation of cells at S pahse at 111.1 nM incubated for 24 hrs by flow cytometry (reference value: 13.15 %); type: functional
[6] = Induction of cell cycle arrest in human KYSE-150 cells assessed as accumulation of cells at G2/M phase at 333.3 nM incubated for 24 hrs by flow cytometry (reference value: 21.64 %); type: functional
[7] = biological target: T1, von Hippel-Lindau disease tumor suppressor/Lysine-specific demethylase 4A (Homo sapiens, UniProt O75164+P40337); test: PROTAC activity at VHL/KDM4A in human KYSE-150 cells assessed as induction of KDM4A degradation at 50 nM incubated for 24 hrs in presence of Ac-VHL-Me by Western blot analysis; type: cell-based; conditions: KYSE-150 cell line
Target sequence in this assay (O75164 2-1064 limits assumed): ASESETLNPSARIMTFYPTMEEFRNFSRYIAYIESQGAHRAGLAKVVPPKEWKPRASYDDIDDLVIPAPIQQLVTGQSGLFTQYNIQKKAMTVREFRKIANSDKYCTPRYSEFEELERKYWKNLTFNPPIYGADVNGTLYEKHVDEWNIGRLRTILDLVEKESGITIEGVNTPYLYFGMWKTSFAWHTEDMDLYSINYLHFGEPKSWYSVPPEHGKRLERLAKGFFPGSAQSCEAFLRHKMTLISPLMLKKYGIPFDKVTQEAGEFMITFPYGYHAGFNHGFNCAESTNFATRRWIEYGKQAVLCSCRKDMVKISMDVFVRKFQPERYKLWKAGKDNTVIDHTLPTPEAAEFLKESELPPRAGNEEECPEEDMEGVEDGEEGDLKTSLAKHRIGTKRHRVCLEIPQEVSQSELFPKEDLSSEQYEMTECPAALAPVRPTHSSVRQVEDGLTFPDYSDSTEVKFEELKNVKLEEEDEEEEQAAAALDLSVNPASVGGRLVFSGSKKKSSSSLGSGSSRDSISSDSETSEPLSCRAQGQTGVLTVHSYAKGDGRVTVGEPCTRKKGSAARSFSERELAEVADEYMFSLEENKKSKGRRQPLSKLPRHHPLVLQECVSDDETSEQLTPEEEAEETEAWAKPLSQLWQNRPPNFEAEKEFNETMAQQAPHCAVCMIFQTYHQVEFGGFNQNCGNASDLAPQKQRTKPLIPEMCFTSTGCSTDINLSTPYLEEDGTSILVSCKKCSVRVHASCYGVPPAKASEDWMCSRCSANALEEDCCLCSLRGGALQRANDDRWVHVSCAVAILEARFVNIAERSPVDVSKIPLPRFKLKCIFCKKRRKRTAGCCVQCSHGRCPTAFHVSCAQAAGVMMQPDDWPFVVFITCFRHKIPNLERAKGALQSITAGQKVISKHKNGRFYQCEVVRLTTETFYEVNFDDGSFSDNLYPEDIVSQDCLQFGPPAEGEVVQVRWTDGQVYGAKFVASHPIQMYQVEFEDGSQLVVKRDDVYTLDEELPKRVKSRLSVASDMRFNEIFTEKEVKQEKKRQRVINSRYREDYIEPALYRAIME
Target sequence in this assay (P40337 whole entry partner): as the sequence (P40337 whole entry) above

[8] = Induction of apoptosis in human KYSE-150 cells assessed as necrotic cells at 1000 nM incubated for 72 hrs by Annexin V-PE/7-AAD staining based flow cytometry (reference value: 4.28 %); type: functional
[9] = Induction of cell cycle arrest in human KYSE-150 cells assessed as accumulation of cells at G0/G1 phase at 12.3 nM incubated for 24 hrs by flow cytometry (reference value: 65.08 %); type: functional
[10] = biological target: T1, von Hippel-Lindau disease tumor suppressor/Lysine-specific demethylase 4A; test: PROTAC activity at VHL/KDM4A in human KYSE-150 cells assessed as increase in H3K36me3 level incubated for 24 hrs by Western blot analysis; type: cell-based; conditions: KYSE-150 cell line, dose <= 1000.0 nM
Target sequence in this assay (O75164 2-1064 limits assumed): as the sequence (O75164 2-1064 limits assumed) above
Target sequence in this assay (P40337 whole entry partner): as the sequence (P40337 whole entry) above

[11] = Induction of apoptosis in human KYSE-150 cells assessed as early apoptotic cells at 12.3 nM incubated for 72 hrs by Annexin V-PE/7-AAD staining based flow cytometry (reference value: 5.27 %); type: functional
[12] = Induction of cell cycle arrest in human KYSE-150 cells assessed as accumulation of cells at G0/G1 phase at 37 nM incubated for 24 hrs by flow cytometry (reference value: 65.08 %); type: functional
[13] = biological target: T1, von Hippel-Lindau disease tumor suppressor/Lysine-specific demethylase 4A; test: PROTAC activity at VHL/KDM4A in human KYSE-150 cells assessed as induction of KDM4A degradation at 500 nM measured for 8 to 36 hrs by Western blot analysis; type: cell-based; conditions: KYSE-150 cell line, time 8-36 hrs
Target sequence in this assay (O75164 2-1064 limits assumed): as the sequence (O75164 2-1064 limits assumed) above
Target sequence in this assay (P40337 whole entry partner): as the sequence (P40337 whole entry) above

[14] = Induction of apoptosis in human KYSE-150 cells assessed as late apoptotic cells at 37 nM incubated for 72 hrs by Annexin V-PE/7-AAD staining based flow cytometry (reference value: 5.98 %); type: functional
[15] = biological target: T2, von Hippel-Lindau disease tumor suppressor/Lysine-specific demethylase 4C (Homo sapiens, UniProt Q9H3R0+P40337); test: PROTAC activity at VHL/KDM4C in human KYSE-150 cells assessed as induction of KDM4C degradation upto 1000 nM by Western blot analysis; type: cell-based; conditions: KYSE-150 cell line
T2 sequence (P40337 whole entry, looked up): as the sequence (P40337 whole entry) above
T2 sequence (Q9H3R0 whole entry, looked up): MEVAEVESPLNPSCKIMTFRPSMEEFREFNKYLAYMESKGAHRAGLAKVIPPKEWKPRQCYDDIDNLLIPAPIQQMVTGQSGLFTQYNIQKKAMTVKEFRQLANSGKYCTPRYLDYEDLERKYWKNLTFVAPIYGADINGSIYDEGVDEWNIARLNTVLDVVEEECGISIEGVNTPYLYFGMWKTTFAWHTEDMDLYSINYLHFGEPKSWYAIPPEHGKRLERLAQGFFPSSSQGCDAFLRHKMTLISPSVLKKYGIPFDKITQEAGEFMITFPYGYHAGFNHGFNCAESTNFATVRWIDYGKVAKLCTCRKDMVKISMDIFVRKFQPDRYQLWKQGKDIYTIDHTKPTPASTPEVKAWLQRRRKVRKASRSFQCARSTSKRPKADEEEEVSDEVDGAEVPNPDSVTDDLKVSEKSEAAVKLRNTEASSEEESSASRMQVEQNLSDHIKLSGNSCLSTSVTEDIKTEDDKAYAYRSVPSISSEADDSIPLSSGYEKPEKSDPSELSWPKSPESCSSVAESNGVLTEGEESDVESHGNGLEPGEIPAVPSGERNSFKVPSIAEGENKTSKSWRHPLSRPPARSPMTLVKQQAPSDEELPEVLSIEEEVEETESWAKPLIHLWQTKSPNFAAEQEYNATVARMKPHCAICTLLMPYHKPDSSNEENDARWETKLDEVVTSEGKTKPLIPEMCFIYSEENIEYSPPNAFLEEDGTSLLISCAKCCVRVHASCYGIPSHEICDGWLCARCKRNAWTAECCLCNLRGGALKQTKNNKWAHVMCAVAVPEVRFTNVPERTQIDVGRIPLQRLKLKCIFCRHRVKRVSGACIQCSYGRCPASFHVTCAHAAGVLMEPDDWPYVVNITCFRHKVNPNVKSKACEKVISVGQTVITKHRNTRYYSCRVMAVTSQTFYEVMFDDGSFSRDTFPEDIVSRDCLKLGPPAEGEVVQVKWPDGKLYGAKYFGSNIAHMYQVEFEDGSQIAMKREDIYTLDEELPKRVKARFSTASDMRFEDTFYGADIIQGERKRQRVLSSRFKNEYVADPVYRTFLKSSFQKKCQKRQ

[16] = biological target: T1, von Hippel-Lindau disease tumor suppressor/Lysine-specific demethylase 4A; test: PROTAC activity at VHL/KDM4A in human KYSE-150 cells assessed as induction of KDM4A degradation at 50 nM incubated for 24 hrs in presence of MLN4924 by Western blot analysis; type: cell-based; conditions: KYSE-150 cell line
Target sequence in this assay (O75164 2-1064 limits assumed): as the sequence (O75164 2-1064 limits assumed) above
Target sequence in this assay (P40337 whole entry partner): as the sequence (P40337 whole entry) above

[17] = biological target: T1, von Hippel-Lindau disease tumor suppressor/Lysine-specific demethylase 4A; test: PROTAC activity at VHL/KDM4A in human KYSE-150 cells assessed as induction of KDM4A degradation upto 1000 nM by Western blot analysis; type: cell-based; conditions: KYSE-150 cell line
Target sequence in this assay (O75164 2-1064 limits assumed): as the sequence (O75164 2-1064 limits assumed) above
Target sequence in this assay (P40337 whole entry partner): as the sequence (P40337 whole entry) above

[18] = Induction of apoptosis in human KYSE-150 cells assessed as early apoptotic cells at 333.3 nM incubated for 72 hrs by Annexin V-PE/7-AAD staining based flow cytometry (reference value: 5.27 %); type: functional
[19] = biological target: T1, von Hippel-Lindau disease tumor suppressor/Lysine-specific demethylase 4A; test: PROTAC activity at VHL/KDM4A in human KYSE-150 cells assessed as induction of KDM4A degradation at 0.1 uM incubated for 12 hrs by Western blot analysis relative to control; type: cell-based; conditions: KYSE-150 cell line
Target sequence in this assay (O75164 2-1064 limits assumed): as the sequence (O75164 2-1064 limits assumed) above
Target sequence in this assay (P40337 whole entry partner): as the sequence (P40337 whole entry) above

[20] = Induction of apoptosis in human KYSE-150 cells assessed as late apoptotic cells at 333.3 nM incubated for 72 hrs by Annexin V-PE/7-AAD staining based flow cytometry (reference value: 5.98 %); type: functional
[21] = biological target: T1, von Hippel-Lindau disease tumor suppressor/Lysine-specific demethylase 4A; test: PROTAC activity at VHL/KDM4A in human KYSE-150 cells assessed as induction of KDM4A degradation measured after 24 hrs by Western blot analysis; type: cell-based
[22] = Induction of cell cycle arrest in human KYSE-150 cells assessed as accumulation of cells at G2/M phase at 37 nM incubated for 24 hrs by flow cytometry (reference value: 21.64 %); type: functional
[23] = Induction of apoptosis in human KYSE-150 cells assessed as early apoptotic cells at 37 nM incubated for 72 hrs by Annexin V-PE/7-AAD staining based flow cytometry (reference value: 5.27 %); type: functional
[24] = Induction of apoptosis in human KYSE-150 cells assessed as late apoptotic cells at 12.3 nM incubated for 72 hrs by Annexin V-PE/7-AAD staining based flow cytometry (reference value: 5.98 %); type: functional
[25] = Induction of apoptosis in human KYSE-150 cells assessed as early apoptotic cells at 1000 nM incubated for 72 hrs by Annexin V-PE/7-AAD staining based flow cytometry (reference value: 5.27 %); type: functional
[26] = biological target: T2, von Hippel-Lindau disease tumor suppressor/Lysine-specific demethylase 4C; test: PROTAC activity at VHL/KDM4C in human KYSE-150 cells assessed as induction of KDM4C degradation upto 1000 nM measured after 24 hrs by Western blot analysis relative to control; type: cell-based; conditions: KYSE-150 cell line
[27] = biological target: von Hippel-Lindau disease tumor suppressor/Lysine-specific demethylase 4B (Homo sapiens, UniProt P40337+O94953); test: PROTAC activity at VHL/KDM4B in human KYSE-150 cells assessed as induction of KDM4B degradation upto 1000 nM by Western blot analysis; type: cell-based; conditions: KYSE-150 cell line
Chain of von Hippel-Lindau disease tumor suppressor/Lysine-specific demethylase 4B (O94953 whole entry, looked up): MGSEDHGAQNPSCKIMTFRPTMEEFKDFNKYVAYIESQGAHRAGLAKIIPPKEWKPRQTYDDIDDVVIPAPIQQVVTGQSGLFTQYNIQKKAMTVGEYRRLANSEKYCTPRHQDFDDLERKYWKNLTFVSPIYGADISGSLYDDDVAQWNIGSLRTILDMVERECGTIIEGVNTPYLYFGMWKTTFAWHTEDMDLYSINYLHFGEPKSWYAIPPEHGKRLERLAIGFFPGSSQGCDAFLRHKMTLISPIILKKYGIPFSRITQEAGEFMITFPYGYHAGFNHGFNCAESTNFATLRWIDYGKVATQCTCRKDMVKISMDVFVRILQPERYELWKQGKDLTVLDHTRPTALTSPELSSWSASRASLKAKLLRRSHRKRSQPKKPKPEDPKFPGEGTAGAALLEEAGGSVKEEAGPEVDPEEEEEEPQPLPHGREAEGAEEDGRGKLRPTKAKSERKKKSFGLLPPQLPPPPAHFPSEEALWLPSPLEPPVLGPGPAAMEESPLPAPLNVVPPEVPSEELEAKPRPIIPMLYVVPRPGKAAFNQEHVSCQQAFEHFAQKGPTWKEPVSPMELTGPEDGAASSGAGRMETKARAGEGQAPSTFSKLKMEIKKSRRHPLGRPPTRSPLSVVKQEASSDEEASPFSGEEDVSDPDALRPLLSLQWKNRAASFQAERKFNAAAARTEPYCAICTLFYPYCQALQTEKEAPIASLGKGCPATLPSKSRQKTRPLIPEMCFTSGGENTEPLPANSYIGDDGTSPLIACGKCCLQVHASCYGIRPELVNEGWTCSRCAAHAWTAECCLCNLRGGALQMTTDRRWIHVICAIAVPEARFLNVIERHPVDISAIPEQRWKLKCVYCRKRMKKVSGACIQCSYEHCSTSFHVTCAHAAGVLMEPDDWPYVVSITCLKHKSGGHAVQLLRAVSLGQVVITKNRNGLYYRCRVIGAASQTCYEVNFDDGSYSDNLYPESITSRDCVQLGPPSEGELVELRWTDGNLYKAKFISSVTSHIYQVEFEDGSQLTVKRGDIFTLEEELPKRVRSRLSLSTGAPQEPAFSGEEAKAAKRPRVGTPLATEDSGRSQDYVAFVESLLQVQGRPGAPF
Chain of von Hippel-Lindau disease tumor suppressor/Lysine-specific demethylase 4B (P40337 whole entry, looked up): as the sequence (P40337 whole entry) above

[28] = Induction of apoptosis in human KYSE-150 cells assessed as viable cells at 111.1 nM incubated for 72 hrs by Annexin V-PE/7-AAD staining based flow cytometry (reference value: 84.47 %); type: functional; conditions: read-out: Activity
[29] = biological target: T1, von Hippel-Lindau disease tumor suppressor/Lysine-specific demethylase 4A; test: PROTAC activity at VHL/KDM4A in human KYSE-150 cells assessed as induction of KDM4A degradation upto 1000 nM measured after 24 hrs by Western blot analysis relative to control; type: cell-based; conditions: KYSE-150 cell line

DC50 [2]: > 1000 nM
Activity [7]: inactive
Activity [10]: Active
Activity [13]: Active
Activity [15]: Time-dependent-effect
Activity [16]: inactive
Activity [17]: Time-dependent-effect
Activity [19]: 44.9%
Activity ([21]; KYSE-150 cell line): Dose-dependent-effect
DC50 ([21]; kyse-150 cell line): 37.5 nM
Emax [26]: 77.8%
Activity [27]: Time-dependent-effect
Emax [29]: 83.3%
Structure (SMILES): Cc1ncsc1-c1ccc([C@H](C)NC(=O)[C@@H]2C[C@@H](O)CN2C(=O)[C@@H](NC(=O)CCCCCCCCCOc2ccc(N(C)c3ccc4c(c3)OCC[C@H]4CNc3cnccc3C(=O)O)cc2)C(C)(C)C)cc1
Activity [1]: 14.06%
Activity [3]: 54.12%
Activity [4]: 7.7%
Activity [5]: 14.35%
Activity [6]: 13.01%
Activity [8]: 5.01%
Activity [9]: 69.11%
Activity [11]: 10.63%
Activity [12]: 71.68%
Activity [14]: 43.51%
Activity [18]: 26.6%
Activity [20]: 48.79%
Activity [22]: 13.29%
Activity [23]: 18.22%
Activity [24]: 18.97%
Activity [25]: 29.18%
viability at 0.1111 µM [28]: 18.2%
